Entries after “also recorded” stand apart in the source; their conditions may differ.
Key:
HeLa cells [1] = test: Flow-FISH telomere length (PNA-FITC probe) and PI cell cycle analysis in treated telomerase positive HeLa cells; type: cell-based, human; details: for apoptosis (flow-FISH) / cell cycle (PI) / telomere length (flow-FISH): 10 days of treatment, ACV 3 μM, FIG. 1; for apoptosis (flow-FISH) / cell cycle (PI) / telomere length (flow-FISH) / apoptosis / cell cycle distribution / telomere length: GCV 1.5 μM, PCV 1.5 μM; for apoptosis / cell cycle distribution / telomere length: after 10 and 14 days of treatments, ACV 3.0 μM; for cell cycle distribution (PI): treated for 14 days
Experimental: (§1) Both telomerase positive (HeLa) telomerase negative (U-2 OS) cell lines were used. Appropriate assays were performed to detect and confirm telomerase/L1RT specific activity in these cells.
(§2) Telomere length in ACV, GCV and PCV treated and untreated cell lines was measured by flow cytometry with a telomere-specific peptide nucleic acid (PNA) probe^23,24. To determine cell cycle distribution, cells were stained with propidium iodide (PI)^23.
(§3) The U-2 OS (osteosarcoma) and HeLa (uterine cervix) cell lines used in this study were obtained from American Type Culture Collection (Rockville, Md.). Cells were cultured in D-MEM media supplemented with 10% fetal calf serum at 37° C. in a humidified atmosphere of 5% CO2. For treatment of the cells with ACV, the media was supplemented with 3 μM of acyclovir (acyclovir, TEVA Pharm. Ind. Ltd, Israel). For treatment of the cells with GCV, the media was supplemented with 1.5 μM of GCV (Cymevene, Hoffman-La Roche). For treatment of the cells with PCV, the media was supplemented with 1.5 μM of PCV (penciclovir, Merck & Co.).
(§4) For telomere length measurement by flow cytometry, cells were stained with telomere specific FITC conjugated (C3TA2)3 PNA (Applied Biosystems) probe and contrastained with 0.06 μg/ml PI as described by Rufer et al., 1998, Telomere length dynamics in human lymphocyte subpopulations were measured by flow cytometry, Nat. Biotechnol. 16, 743-747.

U-2 OS cells = test: Flow-FISH telomere length (PNA-FITC probe) and PI cell cycle analysis in treated telomerase negative U-2 OS cells; type: cell-based, human; details: for apoptosis (flow-FISH) / cell cycle (PI) / telomere length (flow-FISH): ACV 3 μM; for apoptosis (flow-FISH) / cell cycle (PI) / telomere length (flow-FISH) / apoptosis / cell cycle distribution / telomere length: GCV 1.5 μM, PCV 1.5 μM; for apoptosis / cell cycle distribution / telomere length: after 10 and 14 days of treatments, ACV 3.0 μM
Experimental: as §1, §2, §3, §4

HeLa cells [2] = test: Tumor growth progression assay, s.c. HeLa xenografts in nude mice; type: in vivo, nude (nu/nu) mice; details: 1×10^6 HeLa cells s.c., GCV 2 mg/ml in drinking water ad libitum from day zero
From the text: Exemplary in vivo assays of anti-tumor efficacy of ACV, PCV and/or GCV using nude mice subcutaneous (s.c.) tumors grown from the human HeLa cancer cell line (i.e., xenografts bearing mice) as cancer models are described below. Human cancerous cells needed for in vivo assays may be prepared, for example, as follows: Telomerase positive HeLa human cell line and telomerase negative U-2 OS human cell line are obtained from public sources. Cells are maintained in D-MEM media supplemented with 10% foetal calf serum at 37° C. in a humidified atmosphere of 5% CO2. For in vivo assay, appropriate host, e.g., nude (nu/nu) mice of about 5-7 weeks old are obtained and maintained in pathogen-free conditions. Approximately, 1×10^6 HeLa cells (and/or U-2 OS cells) contained in 200 μl of serum-free media are delivered to all animals, briefly anaesthetized with Metofane, by subcutaneous (s.c.) injection in flank. Then the mice are divided into experimental group and control group. Appropriate concentrations of ACV, PCV and/or GCV are used for tumor growth progression or regression assays. In one embodiment, impairment of s.c. tumor growth or time to progression rather than decrease in size of an established tumor (regression) is assessed. […] Tumors are measured every 2-3 days. […] Tumor volume is calculated with formula 4/3πr^3, where r is the radius of the tumor.

| Compound | apoptosis (flow-FISH) (HeLa cells [1]) | cell cycle (PI) (HeLa cells [1]) | telomere length (flow-FISH) (HeLa cells [1]) | apoptosis (HeLa cells [1]) | cell cycle distribution (HeLa cells [1]) | telomere length (HeLa cells [1]) | cell cycle distribution (PI) (HeLa cells [1]) | apoptosis (flow-FISH) (U-2 OS cells; 10 days of treatment, FIG. 2) | cell cycle (PI) (U-2 OS cells; 10 days of treatment, FIG. 2) | telomere length (flow-FISH) (U-2 OS cells; 10 days of treatment, FIG. 2) | cell cycle (PI) (U-2 OS cells; 14 days of treatment) | apoptosis (flow-FISH) (U-2 OS cells; 14 days of treatment, FIG. 3) | telomere length (flow-FISH) (U-2 OS cells; 14 days of treatment, FIG. 3) | apoptosis (U-2 OS cells) | cell cycle distribution (U-2 OS cells) | telomere length (U-2 OS cells) | s.c. tumor development (HeLa cells [2]) | onset of changes in cell cycle distribution (HeLa cells [1]; ACV treatment) | onset of changes in cell cycle distribution (U-2 OS cells; ACV treatment) |
| --- | --- | --- | --- | --- | --- | --- | --- | --- | --- | --- | --- | --- | --- | --- | --- | --- | --- | --- | --- |
| Nc1nc(O)c2ncn(COC(CO)CO)c2n1 [GCV] | massive apoptosis | changes in cell cycle | decrease in telomere length | massive apoptosis | G2 arrest | telomere shortening | G2 arrest of cell cycle | massive apoptosis | changes in cell cycle | decrease in telomere length | changes in cell cycle; also recorded: G2 arrest of cell cycle | massive apoptosis | decrease in telomere length | massive apoptosis | G2 arrest | telomere shortening | remain tumor free |  |  |
| Nc1nc2c(ncn2CCC(CO)CO)c(=O)[nH]1 [PCV] | massive apoptosis | changes in cell cycle | decrease in telomere length | massive apoptosis | G2 arrest | telomere shortening | G2 arrest of cell cycle | massive apoptosis | changes in cell cycle | decrease in telomere length | changes in cell cycle; also recorded: G2 arrest of cell cycle | massive apoptosis | decrease in telomere length | massive apoptosis | G2 arrest | telomere shortening |  |  |  |
| Nc1nc2c(ncn2COCCO)c(=O)[nH]1 [ACV, 9-[2(hydromethoxy)-methyl]guanine] | massive apoptosis | changes in cell cycle | decrease in telomere length | massive apoptosis | G2 arrest | telomere shortening | G2 arrest of cell cycle | massive apoptosis | changes in cell cycle | decrease in telomere length | changes in cell cycle; also recorded: G2 arrest of cell cycle | massive apoptosis | decrease in telomere length | massive apoptosis | G2 arrest | telomere shortening |  | could be detected after only few days | could be detected after only few days |
